The record followed here is patent publication US20260124223A1, “CANCER IMMUNOTHERAPIES” (Northwestern University, priority 2022, published 2026).

Values joined by “and” are separate entries in the source; they are usually repeats but may differ in a detail not shown here. Identical values can stand only once. Like-named read-outs stand apart in the source and are kept apart here.

The nature of series [1]: DOX concentration in blood, tumor and peritumoral brain tissue of GBM patients (LC/MS). The format is in vivo, human. The note with it: for concentration at 48 h: human, intravenous, GBM patients, 48 hours after liposomal DOX with US/MB. Here is the method: Patients received additional treatment cycles with sonications in an outpatient setting in which the US device was activated by percutaneous access with a single-use transdermal needle concomitantly with the injection of 10 μL/kg of IV microbubbles (DEFINITY, Lantheus, Billerica, USA) and 200 mg of pembrolizumab and 30 mg of liposomal DOX.
Determination of the DOX concentration in blood, tumor and peritumoral brain tissue. Two GBM patients undergoing surgery for resection of tumor with implantation of the Sonocloud-9 US device were studied for this analysis. […] Sonicated and non-sonicated peritumoral brain samples were identified taking into account their location relative to the sonication field of the US device. Non-sonicated peritumoral brain samples were acquired first with the use of a new set of surgical instruments for each sample. Every peritumoral brain tissue was washed with saline solution to remove blood. These samples were sectioned into 30 mg pieces and were flash-frozen for further quantification of DOX levels. DOX was quantified in tumor, peritumoral, and plasma using LC/MS (6500 QTRAP AB Sciex equipped with a SIL-20AC XR HPLC, Shimadzu Scientific Instruments).

The subject of series [2] is HMC3 cells. As to the kind of experiment: Flow cytometry of IFNγ, HLA ABC and PD-L1 in HMC3 cells. In kind it is cell-based, human. The following applies: 5-hour pulse, 72 hours, specific DOX concentrations. The procedure: (§1) Flow cytometry of PDX cell lines and HMC3 cells. PDX cell lines were kindly gifted. HMC3 cells were acquired from ATCC. GBM6, GBM63 and HMC3 cells were seeded on 6-well plates for treatment with increasing concentrations of DOX hydrochloride (D1515, Sigma Aldrich), IFN-γ (300-02, Peprotech) or 50 μM of TMZ (Accord). PDX and HMC3 cells were treated for 5 hours followed by 3 washes with PBS and cultured afterwards with Dulbecco's modified Eagle's medium (Corning) supplemented with 10% FBS (Hyclone) and 1% penicillin/streptomycin (Corning). 72 hours after treatment, PDX cells were harvested using Accutase cell detachment solution (Corning) and were stained initially with eBioscience Fixable Viability Dye eFluor 780 (Thermo Fisher) at 1:1000 dilution. Staining with HLA ABC AF-647 (311414) and HLA-DR BV421 (307636) was done for PDX cells. IFN-γ AF-700 (502520), HLA ABC FITC (311404), PD-L1 Pe-Cy7 (374506). All antibodies for this experiment were from Biolegend. Data was acquired using BD FACSymphony Flow Cytometer.
In general terms: A flow cytometer gives signals particle by particle.

Series [3] has as its system GL261-bearing mice. Briefly: Immunophenotyping of GL261-bearing mice treated with increasing doses of liposomal DOX with or without US/MB. The format is in vivo, mouse. The following applies: 1 and 2 mg/kg; 5 mg/kg without US/MB. The procedure:
Ultrasound-mediated BBB opening in mouse models.
After injection of glioma cells, the incision was closed using 9 mm stainless steel wound clips. On day 7 and 14 after IC implantation of glioma cell lines, mice were treated with liposomal DOX obtained from the pharmacy of Northwestern Memorial Hospital. On day 7, 10, 14, and 17 after IC injection of glioma cells, mice were treated with either […] of anti-mouse PD-1 (CD279) BE0146 (BioXcell) or rat IgG2a isotype control BE0089 (BioXcell).

Series [4] concerns HMC3. As to the kind of experiment: FCGR3A / FcγRIIIA expression in HMC3 cells (qRT-PCR, flow cytometry). The note with it: DOX 5 hours, fresh media 72 hours. The format is cell-based, human. Here is the method:
as §1

The subject of series [5] is GBM6. Briefly: Flow cytometry of antigen-presenting molecules in PDX cell line GBM6. The format is cell-based, human. The note with it: 5 hours exposure, 72 hours drug-free, relative to no treatment. The procedure: as §1
Series [6] has as its system GL261 tumor-bearing mice. The following applies: LIPU/MB+IC+DOX.
Experimental: Cell culture. […] Both cell lines were cultured in Dulbecco's modified Eagle's medium (Gibco) supplemented with 10% fetal bovine serum (Gibco), and 1% penicillin/streptomycin (Gibco) in 5% CO2 incubators at 37° C. […] QPP4 cells were maintained in Dulbecco's modified Eagle's medium/F-12 (Gibco) supplemented with B-27 (Gibco), recombinant epidermal growth factor (EGF, 20 ng/ml, PeproTech), and recombinant basic fibroblast growth factor (bFGF, 20 ng/ml, PeproTech).
Animal Experiments. […] All murine cell lines used for this study were routinely tested for mycoplasma and were confirmed negative before intracranial orthotopic injection. To perform intracranial injection of syngeneic murine glioma cell lines, mice were anesthetized with ketamine/xylazine cocktail. Artificial tears were used to prevent eye drying and protect the eye. […] Mice were monitored daily and were euthanized when they approached the endpoint (weight loss is >20% of pre-treatment body weight or loss of mobility or severe neurological disabilities such as seizure, circular motion, etc.) as described in the IACUC protocol.
LIPU/MB. […] Sonications were performed for 120 seconds using a 25,000-cycle burst at a 1 Hz pulse repetition frequency and an acoustic pressure of 0.3 MPa as measured in water. After sonications, mice were moved to a clean cage, placed upon a heating pad, and monitored until they recovered from anesthesia.
Series [7] has as its system GL261. As to the kind of experiment: H-2Kb expression in GL261 cells by flow cytometry. The following applies: similar DOX concentration range, compared to no treatment. In kind it is cell-based, mouse.
Series [8] relates to GBM63. As to the kind of experiment: Flow cytometry of antigen-presenting molecules in PDX cell line GBM63. In kind it is cell-based, human. The following applies: 5 hours exposure, 72 hours drug-free. Here is the method: as §1
The test system of series [9] is CT2A. As to the kind of experiment: H-2Kb expression in CT2A cells by flow cytometry. The format is cell-based, mouse. The following applies: similar DOX concentration range, compared to no treatment.
Series [10] relates to recurrent GBM patients. As to the kind of experiment: Multiplex immunofluorescence of pre-treatment and on-treatment human GBM samples. The note with it: tumors exposed to DOX vs before DOX.

Turning to `COc1cccc2c1C(=O)c1c(O)c3c(c(O)c1C2=O)C[C@@](O)(C(=O)CO)C[C@@H]3O[C@H]1C[C@H](N)[C@H](O)[C@H](C)O1` [DOX, Doxorubicin], in [1] (2 GBM patients, 48 hours, 95% CI of mean 1.406-2.659), the “fold increase in DOX concentration, sonicated relative to non-sonicated peritumoral brain samples” value worked out at 2.033 fold. Moreover, in series [1] (plasma, read-out: DOX plasma levels), the concentration at 48 h is 8230 ng/mL and 14.2 µM. In series [1] (tumor, read-out: DOX tumor concentrations), the concentration at 48 h was 146 ng/g to 2290 ng/g and 251 nM to 3.94 µM. In addition, in series [2], the “expression of HLA ABC” value is recorded as “promoted”, the “expression of PD-L1” value is “promoted” and the “production of IFNγ” value is “promoted”. In addition, in series [3], the “IFN-γ by glioma-associated myeloid cells” value was “no other doses of DOX nor the 5 mg/kg of dose delivered in the absence of US/MB elicited IFN-γ”. The “FCGR3A expression, times higher than in untreated microglia” value in [4] was about 16 times. For the same molecule, the “DOX concentration range that upregulated HLA ABC and HLA DR expression” value in series [5] lay within 0.15 to 1.2 M. For the same molecule, the long-term survivors in series [6] is given as 16.7%. Besides, the H-2Kb expression entry in [7] is reported as “upregulated”. Also, the “DOX concentration range that upregulated HLA ABC and HLA-DR expression” value in [8] fell in the range of 0.15 to 0.6 M. Also, the H-2Kb expression entry in series [9] is recorded as “upregulated”. Also, the “TMEM119+ cells expressing HLA I” value in series [10] (P=0.0092) is reported as “increased number”. Besides, the “CD163+ cells expressing HLA I” value in [10] (P=0.0712) is given as “increased number”.
